The source made the active and inactive calls. No cut-off for these calls is given here. Where a SMILES comes first, the peptide text is derived from it.
What was measured:
[1] = biological target: T1, Toll-like receptor 4 (Rattus norvegicus) (UniProt Q9QX05); assay: Inhibition of TLR4 in Sprague-Dawley rat cardiomyocytes assessed as reduction in hypoxia-induced creatine kinase levels preincubated for 1 hr followed by hypoxia for 3 hrs by NADP reduction based colorimetric analysis; assay type: cell-based
T1 sequence (whole entry): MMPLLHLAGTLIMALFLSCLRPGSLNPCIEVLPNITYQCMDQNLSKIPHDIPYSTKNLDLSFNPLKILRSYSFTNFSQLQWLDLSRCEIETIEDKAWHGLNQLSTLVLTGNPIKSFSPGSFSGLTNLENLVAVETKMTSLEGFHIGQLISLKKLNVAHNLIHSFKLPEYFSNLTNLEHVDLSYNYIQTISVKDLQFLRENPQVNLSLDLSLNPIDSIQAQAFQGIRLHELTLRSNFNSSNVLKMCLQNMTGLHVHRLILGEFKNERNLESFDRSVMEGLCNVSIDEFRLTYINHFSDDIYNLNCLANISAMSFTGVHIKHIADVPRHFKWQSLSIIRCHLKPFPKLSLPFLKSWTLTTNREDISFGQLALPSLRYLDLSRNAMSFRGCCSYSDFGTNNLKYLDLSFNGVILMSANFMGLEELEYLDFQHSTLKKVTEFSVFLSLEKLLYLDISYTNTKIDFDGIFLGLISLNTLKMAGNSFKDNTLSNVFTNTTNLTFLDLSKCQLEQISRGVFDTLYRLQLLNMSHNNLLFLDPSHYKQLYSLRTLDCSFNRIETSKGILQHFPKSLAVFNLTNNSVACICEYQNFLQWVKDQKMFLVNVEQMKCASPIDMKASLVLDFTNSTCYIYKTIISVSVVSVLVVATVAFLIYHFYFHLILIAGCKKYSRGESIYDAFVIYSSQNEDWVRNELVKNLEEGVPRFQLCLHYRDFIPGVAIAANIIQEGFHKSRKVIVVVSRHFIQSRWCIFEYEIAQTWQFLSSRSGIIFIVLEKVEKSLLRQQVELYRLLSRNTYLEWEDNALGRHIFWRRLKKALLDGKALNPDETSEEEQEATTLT

[2] = biological target: T1, Toll-like receptor 4 (Rattus norvegicus); assay: Inhibition of TLR4 in Sprague-Dawley rat cardiomyocytes assessed as reduction in hypoxia-induced LDH release preincubated for 1 hr followed by hypoxia for 3 hrs by NADH detection based colorimetric analysis; assay type: cell-based
[3] = biological target: T1, Toll-like receptor 4 (Rattus norvegicus); assay: Inhibition of TLR4 in Sprague-Dawley rat cardiomyocytes assessed as reduction in hypoxia-induced creatine kinase levels at 10 to 20 uM preincubated for 1 hr followed by hypoxia for 3 hrs by NADP reduction based colorimetric analysis; assay type: cell-based
[4] = biological target: T1, Toll-like receptor 4 (Rattus norvegicus); assay: Inhibition of TLR4 in Sprague-Dawley rat cardiomyocytes assessed as reduction in hypoxia-induced LDH release at 10 to 20 uM preincubated for 1 hr followed by hypoxia for 3 hrs by NADH detection based colorimetric analysis; assay type: cell-based
[5] = biological target: T1, Toll-like receptor 4 (Rattus norvegicus); assay: Inhibition of TLR4 in Sprague-Dawley rat cardiomyocytes assessed as reduction in hypoxia-induced creatine kinase levels at 20 uM preincubated for 1 hr followed by hypoxia for 3 hrs by NADP reduction based colorimetric analysis; assay type: cell-based
[6] = biological target: T1, Toll-like receptor 4 (Rattus norvegicus); assay: Inhibition of TLR4 in Sprague-Dawley rat cardiomyocytes assessed as reduction in hypoxia-induced creatine kinase levels at 10 uM preincubated for 1 hr followed by hypoxia for 3 hrs by NADP reduction based colorimetric analysis; assay type: cell-based
[7] = biological target: T1, Toll-like receptor 4 (Rattus norvegicus); assay: Inhibition of TLR4 in Sprague-Dawley rat cardiomyocytes assessed as reduction in hypoxia-induced LDH release at 10 uM preincubated for 1 hr followed by hypoxia for 3 hrs by NADH detection based colorimetric analysis; assay type: cell-based
[8] = biological target: T1, Toll-like receptor 4 (Rattus norvegicus); assay: Inhibition of TLR4 in Sprague-Dawley rat cardiomyocytes assessed as reduction in hypoxia-induced LDH release at 20 uM preincubated for 1 hr followed by hypoxia for 3 hrs by NADH detection based colorimetric analysis; assay type: cell-based
[9] = test system: Macrophage; assay: Antiinflammatory activity in human macrophages assessed reduction in LPS-induced TLR4 expression at 10 uM pretreated for 30 mins followed by LPS stimulation for 4 hrs by FACS analysis; assay type: functional, cell-based
[10] = test system: Macrophage; assay: Antiinflammatory activity in human macrophages assessed reduction in TLR4 expression at 10 uM after 4 hrs by FACS analysis; assay type: functional, cell-based
[11] = biological target: T1, Toll-like receptor 4 (Rattus norvegicus); assay: Inhibition of TLR4 in Sprague-Dawley rat cardiomyocytes assessed as reduction in LPS-induced creatine kinase levels at 10 to 20 uM preincubated for 1 hr followed by LPS stimulation for 5 hrs by NADH detection based colorimetric analysis; assay type: cell-based
[12] = biological target: T1, Toll-like receptor 4 (Rattus norvegicus); assay: Inhibition of TLR4 in Sprague-Dawley rat cardiomyocytes assessed as reduction in LPS-induced LDH release at 10 to 20 uM preincubated for 1 hr followed by LPS stimulation for 5 hrs by NADH detection based colorimetric analysis; assay type: cell-based
[13] = biological target: T1, Toll-like receptor 4 (Rattus norvegicus); assay: Inhibition of TLR4 in Sprague Dawley rat cardiomyocytes assessed as reduction in LPS induced LDH levels by measuring NADH levels at 10 to 20 uM preincubated for 1 hr followed by induction of hypoxia measured after 5 hrs by colorimetric analysis; assay type: cell-based
[14] = Reduction in hypoxia-induced TLR4 mRNA expression in Sprague-Dawley rat cardiomyocytes at 20 uM preincubated for 1 hr followed by hypoxia for 3 hrs by RT-qPCR analysis relative to untreated control; assay type: functional, Cardiac muscle cell
[15] = biological target: T1, Toll-like receptor 4 (Rattus norvegicus); assay: Inhibition of TLR4 in Sprague-Dawley rat cardiomyocytes assessed as reduction in hypoxia-induced IL-1beta mRNA expression at 20 uM preincubated for 1 hr followed by hypoxia for 3 hrs by RT-qPCR analysis; assay type: cell-based
[16] = biological target: T1, Toll-like receptor 4 (Rattus norvegicus); assay: Inhibition of TLR4 in Sprague-Dawley rat cardiomyocytes assessed as reduction in hypoxia-induced creatine kinase levels at 1 uM preincubated for 1 hr followed by hypoxia for 3 hrs by NADP reduction based colorimetric analysis; assay type: cell-based
[17] = biological target: T1, Toll-like receptor 4 (Rattus norvegicus); assay: Inhibition of TLR4 in Sprague-Dawley rat cardiomyocytes assessed as reduction in hypoxia-induced LDH release at 1 uM preincubated for 1 hr followed by hypoxia for 3 hrs by NADH detection based colorimetric analysis; assay type: cell-based

Row | Compound | inhibition [1] | inhibition [2] | other results
1 | CC[C@H](C)[C@H](NC(C)=O)C(=O)N[C@@H](Cc1ccccc1)C(=O)N[C@@H](C)C(N)=O (Ac-Ile-Phe-Ala-NH2) | inactive | inactive | 
2 | CCCCCCCCNc1nc(=O)n(Cc2ccc(C(F)(F)F)cc2)cc1C | inactive | inactive | 
3 | CSCC[C@H](NC(=O)[C@H](CCC(=O)O)NC(=O)[C@H](C)NC(=O)[C@H](Cc1ccccc1)NC(C)=O)C(N)=O (Ac-FAEM-NH2) | Dose-dependent effect | Dose-dependent effect | inhibition [3]: Active; inhibition [4]: Active
4 | H-IVFAEMPCG-OH |  |  | fold change (FC) [5]: 5.5; inhibition [6]: inactive; inhibition [7]: inactive; fold change (FC) [8]: 1.8; Activity [9]: Active; Activity [10]: Active
5 | CC(=O)N[C@H](C(=O)N[C@@H](Cc1ccccc1)C(=O)N[C@@H](C)C(=O)N[C@@H](CCC(=O)O)C(N)=O)C(C)C (Ac-VFAE-NH2) | Dose-dependent effect | Dose-dependent effect | inhibition [3]: Active; inhibition [4]: Active; inhibition [11]: Active; inhibition [12]: Active; inhibition [13]: Active; Activity [9]: Active; Activity [10]: Active
6 | CCOc1ncc(C)c(OCC)n1 | inactive | inactive | 
7 | CCOc1nc(=O)n(Cc2ccc([N+](=O)[O-])cc2)cc1C | inactive | inactive | 
8 | Cc1cn(Cc2ccccc2)c(=O)nc1NCCC(C)C |  |  | inhibition [6]: Active; inhibition [7]: Active; fold change (FC) [14]: 1.5; fold change (FC) [15]: 1.4
9 | CCC(C)Nc1nc(=O)n(Cc2ccccc2)cc1C (stereo not drawn) | inactive | inactive | 
10 | Cc1cn(Cc2ccccc2)c(=O)nc1NCCCN(C)C | inactive | inactive | 
11 | CCOc1nc(=O)n(Cc2ccc3ccccc3c2)cc1C | inactive | inactive | 
12 | CSCC[C@H](NC(=O)[C@H](CCC(=O)O)NC(C)=O)C(=O)N1CCC[C@H]1C(=O)NC(CS)C(N)=O (single isomer, unassigned) | inactive | inactive | 
13 | CSCC[C@H](NC(C)=O)C(=O)N1CCC[C@H]1C(=O)NC(CS)C(=O)NCC(N)=O (single isomer, unassigned) | inactive | inactive | 
14 | CC(=O)N[C@H](C(=O)N[C@@H](Cc1ccccc1)C(=O)N[C@@H](C)C(N)=O)C(C)C (Ac-Val-Phe-Ala-NH2) | inactive | inactive | 
15 | CCOc1nc(=O)n(Cc2ccccc2)cc1C | inactive | inactive | 

Now from value to compound, other results behind:

Row | inhibition [1] | inhibition [2] | Compound | other results
16 | Dose-dependent effect | Dose-dependent effect | CSCC[C@H](NC(=O)[C@H](CCC(=O)O)NC(=O)[C@H](C)NC(C)=O)C(=O)N1CCC[C@H]1C(N)=O (Ac-AEMP-NH2) | 
17 | inactive | inactive | CC(=O)N[C@@H](Cc1ccccc1)C(=O)N[C@@H](C)C(=O)N[C@@H](CCC(=O)O)C(N)=O (Ac-Phe-Ala-Glu-NH2) | 
18 | inactive | inactive | Cc1cn(Cc2ccccc2)c(=O)nc1NC1CCCC1 | 
19 | Dose-dependent effect | Dose-dependent effect | CC[C@H](C)[C@H](NC(C)=O)C(=O)N[C@H](C(=O)N[C@@H](Cc1ccccc1)C(=O)N[C@@H](C)C(N)=O)C(C)C (Ac-IVFA-NH2) | inhibition [16]: 77%; inhibition [17]: 70%; inhibition [11]: Active; inhibition [12]: Active; inhibition [13]: Active; Activity [9]: Active; Activity [10]: Active
20 | inactive | inactive | CCCCCCCCCCNc1nc(=O)n(Cc2ccccc2)cc1C | 
21 | inactive | inactive | Cc1cn(Cc2ccccc2)c(=O)nc1NCc1ccccc1 | 
22 | inactive | inactive | CCCCCCCCNc1nc(=O)n(Cc2ccc([N+](=O)[O-])cc2)cc1C | 
23 | inactive | inactive | CCOc1nc(=O)n(Cc2ccc(C(F)(F)F)cc2)cc1C | 

— ChEMBL document CHEMBL4382262, “Structurally Simple, Readily Available Peptidomimetic 1-Benzyl-5-methyl-4-( n-octylamino)pyrimidin-2(1 H)-one Exhibited Efficient Cardioprotection in a Myocardial Ischemia (MI) Mouse Model” (J Med Chem, 2018)
